Results taken from patent US20030207830A1, “Mutant NDP kinases for antiviral nucleotide analog activation and therapeutic uses thereof” (priority 2002, published 2003).
Positions count from the first letter of the chain named. Numbers in names are those of the source. Each block holds one molecule with its values, some of them ahead of it.

Key:
Type in all cases: biochemical
[1] = target: T1, human NDP kinase A (NDPK-A) variant L55H-N115S, SEQ ID NO: 3 (Homo sapiens, UniProt P15531, L55H/N115S); assay: Pre-steady-state phosphotransfer, fluorescence stopped-flow; conditions: for enhancement of ability to phosphorylate: substitution of Asn 115 for Ser and Leu 55 for His; for Specificity change (R): ratio of catalytic efficiencies analog vs natural nucleotide, mutant vs wild type; for k2/Ks: catalytic efficiency of phosphotransfer
T1 construct: made in house; host or cells: E. coli
Method: (§1) FIG. 3 depicts the catalytic efficiency of NDPK-A and mutants for nucleoside analogs. The rates of phosphorylation of pure recombinant NDP kinases (1 μM) were measured at the pre-steady state in a fluorescence stopped-flow with d4T-TP (10 to 80 μM). The catalytic efficiency (expressed in M^−1s^−1) was determined from the variation of the rate as a function of analog as shown in FIG. 2 (▾, NDPK-A, ♦ L55H, ● N115S, ▪ L55H-N115S).
(§2) The activity assays were performed at the pre-steady state level.
(§3) R, the specificity change, is the ratio of the catalytic efficiencies (for analog versus natural nucleotide) of the mutant compared to the wild type enzyme.
(§4) Wild type human NDPK-A and the mutants were expressed and purified according to Schneider et al., 2000, Mol Pharm. Recombinant wild type and mutant Dd-NDPK were obtained as described (Schneid, 1998a), except for N119Y NDP kinase which was partially purified by Q sepharose FF chromatography. Each protein was characterized by […] electrophoresis. The concentration of 17 kDa subunits of the enzyme was either determined by Bradford assay ([…]) or using an absorbance coefficient of ΔA^280=1.249 for a 1 mg/mL solution of human wild type and N115S NDPK-A, and =0.55 for wild type and mutant N119S, N119T Dd-NDP kinases, respectively.
(§5) As the diphosphate form of analogs were not always available, the triphosphate analogs were used to study phosphate transfer in reaction as in Scheme I. Experiments were performed with an Hi-Tech DX2 microvolume stopped-flow reaction (Schneider, 1998) at Aexc=296 nm (for Ado derivatives) or […] (for other nucleotides), 2 mm excitation slit and a 320 nm cutoff filter at the emission. After mixing NDPK (1 μM) and NTP or an analogTP (10-500 μM), the intrinsic protein fluorescence was recorded for 10-200 sec. In each experiment, 400 pairs of data were recorded, and the data from 3-4 identical experiments were averaged and fitted to a number of non-linear analytical equations using the software provided by Hi-Tech.
(§6) The data were analyzed using the reaction scheme: [drawing 1]
(§7) In both the forward and the reverse reactions, the product concentration remains very low, thus the product binding can be neglected, and the observed single step could be attributed to the phosphotransfer (Schneider, 1998). The rate of this observed single step is: [formula]
(§8) and reaches a limiting value (k+2) at NTP saturation. […] Therefore, catalytic efficiencies of phosphorylation (CEphos=k+2/(k−1/k+1)=k+2/KS) were measured, which are equivalent to second order constants and allow a reliable comparison of a variety of NDP kinase substrates.

[2] = target: T2, human NDP kinase A (NDPK-A, nm23-H1), wild type (Homo sapiens, UniProt P15531); assay: as above; conditions: for k2/Ks: catalytic efficiency of phosphotransfer, NDPK-A, pre-steady state
T2 construct: made in house
Method: as §1, §2, §4, §5, §6, §7, §8

[3] = target: T3, human NDP kinase A (NDPK-A) variant N115S, SEQ ID NO: 2 (Homo sapiens, UniProt P15531, N115S); assay: as above; conditions: for k2/Ks: catalytic efficiency of phosphotransfer; for Specificity change (R): ratio of catalytic efficiencies analog vs natural nucleotide, mutant vs wild type
T3 construct: made in house; host or cells: E. coli
Method: as §1, §2, §3, §4, §5, §6, §7, §8

[4] = target: T4, human NDP kinase A (NDPK-A) variant L55H (Homo sapiens, UniProt P15531, L55H); assay: as above; conditions: for k2/Ks: catalytic efficiency of phosphotransfer; for Specificity change (R): ratio of catalytic efficiencies analog vs natural nucleotide, mutant vs wild type
T4 construct: made in house; host or cells: E. coli
Method: as §1, §2, §3, §4, §5, §6, §7, §8

[5] = Steady-state NDP kinase activity, coupled enzymes (pyruvate kinase, lactate dehydrogenase); conditions: for specific activity: standard conditions: [ATP]=1 mM, [dTDP]=0.2 mM, 20° C.
Method: The activity of NDP kinase was measured at 20° C. with ATP and dTDP as substrates using coupled enzymes (pyruvate kinase and lactate dehydrogenase) (Lascu 1993). One unit is the amount of enzyme that catalyzes the phosphotransfer of 1 μmol/min under standard conditions: [ATP]=1 mM, [dTDP]=0.2 mM. Rate constants (kcat) and Michaelis constants (Km) were determined from initial velocities for two different constant ratios of nucleotide [dTDP]/[ATP]=0.05 0.1 with [ATP] varying from 0.2 to 2 mM. kcat is expressed by enzyme subunit. The ratio of the ^apparentkcat/^apparentKM at a given concentration of the other substrate is equal to the true value of kcat/KM for a ping-pong enzyme.

T3 sequence (P15531 whole entry N115S): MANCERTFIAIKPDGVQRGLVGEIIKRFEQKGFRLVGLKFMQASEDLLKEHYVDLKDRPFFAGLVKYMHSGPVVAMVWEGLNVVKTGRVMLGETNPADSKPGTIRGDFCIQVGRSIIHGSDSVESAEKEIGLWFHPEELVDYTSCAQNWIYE
T1 sequence (P15531 whole entry L55H/N115S): as the sequence (P15531 whole entry N115S) above, with L55H counted along it
T2 sequence (P15531 whole entry): as the sequence (P15531 whole entry N115S) above, with S115N counted along it
T4 sequence (P15531 whole entry L55H): as the sequence (P15531 whole entry N115S) above, with L55H, S115N counted along it

- enhancement of ability to phosphorylate [1]: 200-300 times
Molecule: Nc1nc2c(ncn2COCCO)c(=O)[nH]1 [acyclovir]

- enhancement of ability to phosphorylate [1]: 200-300 times
Molecule: Cc1cn([C@H]2C=C[C@@H](CO)O2)c(=O)[nH]c1=O [d4T]

- k2/Ks [2]: 3.6e+06 M⁻¹ s⁻¹
- k2/Ks ([3]; N115S, pre-steady state): 240000 M⁻¹ s⁻¹
- k2/Ks ([1]; L55H-N115S, pre-steady state): 500000 M⁻¹ s⁻¹
- k2/Ks ([4]; L55H, pre-steady state): 6.8e+06 M⁻¹ s⁻¹
Molecule: Nc1nc2c(ncn2[C@H]2C[C@H](O)[C@@H](COP(=O)(O)OP(=O)(O)OP(=O)(O)O)O2)c(=O)[nH]1 [dGTP]

Second part, the molecule before the results:

Molecule: Cc1cn([C@H]2C=C[C@@H](COP(=O)(O)OP(=O)(O)OP(=O)(O)O)O2)c(=O)[nH]c1=O [d4T-TP, dideoxy, didehydro-TTP]
- times more slowly than with dTTP ([2]; NDPK-A wild type): 1700 times
- k2/Ks [2]: 700 M⁻¹ s⁻¹
- factor of rate versus wild type NDPK-A ([3]; N115S, pre-steady state): 1.8
- k2/Ks ([3]; N115S, pre-steady state): 6250 M⁻¹ s⁻¹
- Specificity change (R) [3]: (120)
- factor of rate versus wild type NDPK-A ([1]; L55H-N115S, pre-steady state): 80
- reactivity compared with dTTP ([1]; double mutant, catalytic efficiency): eight fold less
- Specificity change (R) [1]: (210)
- reaction rate compared with Dd-NDPK ([4]; L55H mutant): at the same rate as Dd-NDPK
- factor of rate versus wild type NDPK-A ([4]; L55H, pre-steady state): 9
- k2/Ks ([4]; L55H, pre-steady state): 1280 M⁻¹ s⁻¹
- Specificity change (R) [4]: (10)

Molecule: Cc1cn([C@H]2CC[C@@H](COP(=O)(O)OP(=O)(O)OP(=O)(O)O)O2)c(=O)[nH]c1=O [dideoxy-TTP]
- k2/Ks [2]: 20 M⁻¹ s⁻¹
- k2/Ks ([3]; N115S, pre-steady state): 170 M⁻¹ s⁻¹
- Specificity change (R) [3]: (100)
- k2/Ks ([1]; L55H-N115S, pre-steady state): 2800 M⁻¹ s⁻¹
- Specificity change (R) [1]: (370)
- k2/Ks ([4]; L55H, pre-steady state): 200 M⁻¹ s⁻¹
- Specificity change (R) [4]: (6)

Molecule: L55H: human NDPK-A with Leu 55 replaced by His
- steady-state activity relative to NDPK-A ([5]; ATP and dTDP): 1.6 fold
- specific activity [5]: 1900 U/mg

B1: N119Y: Dd-NDPK with Tyr at the position of Asn 119, unstable and poorly active (protein, UniProt P22887 1-155, looked up, variant N119Y)
Nucleoside diphosphate …: MSTNKVNKERTFLAVKPDGVARGLVGEIIARYEKKGFVLVGLKQLVPTKDLAESHYAEHKERPFFGGLVSFITSGPVVAMVFEGKGVVASARLMIGVTNPLASAPGSIRGDFGVDVGRYIIHGSDSVESANREIALWFKPEELLTEVKPNPNLYE
- activity relative to wild type ([5]; Dd-NDPK mutant, partially purified): 0.05 % of wild type activity

B2: Dd-NDPK: wild type NDP kinase from Dictyostelium discoideum (protein, UniProt P22887 1-155, looked up)
Nucleoside diphosphate …: B1 Nucleoside diphosphate … with Y119N
- specific activity [5]: 2000 U/mg
